Reference: US20240059691A1 (KALVISTA PHARMACEUTICALS LIMITED, priority 2020, published 2024)
Read-outs that look alike come from different tables or passages of the source.

What was measured:
Human Factor XIIa = Human Factor XIIa (Homo sapiens (Human), UniProt P00748); experiment: Determination of FXIIa inhibition (fluorogenic substrate H-DPro-Phe-Arg-AFC, IC50 assay); format: biochemical; conditions: substrate H-DPro-Phe-Arg-AFC at Km, 25° C.; class scale A-G
In short: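 IC50 derived from % remaining activity, taken as the linear fluorescence rate over a 5 min read at 25° C. Substrate H-DPro-Phe-Arg-AFC was used at its Km (Michaelis-Menten) with human FXIIa and serial compound dilutions, 25° C.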

Plasma Kallikrein = Plasma Kallikrein (Homo sapiens (Human), UniProt P03952); experiment: Determination of related protease inhibition: Plasma Kallikrein (fluorogenic substrate at Km); format: biochemical; conditions: 25° C., read-out: IC50 (human PKal)
In short: (§1)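 IC50 values derive from the linear rate of fluorescence increase, normalised to uninhibited enzyme as 100% activity. Each human protease was run against its fluorogenic substrate at Km concentration with varying compound levels, with product fluorescence followed over 5 min at 25 °C.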

KLK1 = KLK1 (Homo sapiens (Human), UniProt P06870); experiment: Determination of related protease inhibition: KLK1 (fluorogenic substrate at Km); format: biochemical; conditions: 25° C.
In short: as §1

FXa = FXa (Homo sapiens (Human), UniProt P00742); experiment: Determination of related protease inhibition: FXa (fluorogenic substrate at Km); format: biochemical; conditions: 25° C.
In short: as §1

Plasmin = Plasmin (Homo sapiens (Human), UniProt P00747); experiment: Determination of related protease inhibition: Plasmin (fluorogenic substrate at Km); format: biochemical; conditions: 25° C.
Method: (§2) Determination of Related Protease Inhibition
(§3) In vitro inhibition of related proteases was determined using an ([…] assay based on standard literature methods (see e.g. Shori et al., Biochem. Pharmacol., 1992, 43, 1209; Bouckaert et al., European Journal of Medicinal Chemistry 110 (2016) 181). Human serine protease enzymes Plasma Kallikrein, KLK1, FXa, Plasmin, Thrombin and Trypsin were assayed for enzymatic activity using an appropriate fluorogenic substrate at Km concentration, FXIa at fixed substrate concentration of 100 μM, and various concentrations of the test compound. Protease activity was measured by monitoring the accumulation of liberated fluorescence from the substrate over […]. The linear rate of fluorescence increase per minute was expressed as percentage (%) activity. IC50 values were calculated as the concentration of inhibitor giving 50% inhibition of the uninhibited enzyme activity (100%).

Thrombin = Thrombin (Homo sapiens (Human), UniProt P00734); experiment: Determination of related protease inhibition: Thrombin (fluorogenic substrate at Km); format: biochemical; conditions: 25° C.
In short: as §1

Trypsin = experiment: Determination of related protease inhibition: Trypsin (fluorogenic substrate at Km); format: biochemical, human; conditions: 25° C.
Method: as §2, §3

FXIa = FXIa (Homo sapiens (Human), UniProt P03951); experiment: Determination of related protease inhibition: FXIa (fixed substrate concentration of 100 μM); format: biochemical; conditions: 25° C.
Method: as §2, §3

[1] = Pharmacokinetics following a single intravenous dose and a single oral dose in male Sprague-Dawley rats (oral bioavailability, half-life); format: in vivo; conditions: rat, plasma, 10% DMSO/10% Cremophor EL/80% SWFI; for bioavailability: read-out: F % (oral bioavailability)
Method: Pharmacokinetic studies of the compounds in Table 16 were performed to assess the pharmacokinetics following a single intravenous dose and a single oral dose in male Sprague-Dawley rats. Two rats were given a single intravenous dose of 1 mL/kg of a nominal 1 mg/mL (1 mg/kg) composition of test compound in 10% DMSO/10% Cremophor EL/80% SWFI vehicle. Example 2191 was dosed at 1 mL/kg of a nominal 2 mg/mL (2 mg/kg) using the same vehicle.
Two rats were given a single oral dose of 5 mL/kg of a nominal 1 mg/mL (5 mg/kg) composition of test compound in 10% DMSO/10% Cremophor EL/80% SWFI vehicle. Example 2191 was dosed at 5 mL/kg of a nominal 2 mg/mL (10 mg/kg) using the same vehicle.
Following intravenous dosing, blood samples were collected over a period of 12 h. Sample times were 2, 5, 15 and 30 min then 1, 2, 4, 6, and 12 h. Following oral dosing, blood samples were collected over a period of 24 h. Sample times were 5, 15 and 30 min then 1, 2, 4, 6, 8, 12 and 24 h.
Following collection, blood samples were centrifuged and the plasma fraction analysed for concentration of test compound by LCMS. Oral bioavailability and half-life calculations from these studies were obtained using Phoenix WinNonlin (v8.0) and are shown below: […]

Sequence of Plasma Kallikrein (P03952 391-638): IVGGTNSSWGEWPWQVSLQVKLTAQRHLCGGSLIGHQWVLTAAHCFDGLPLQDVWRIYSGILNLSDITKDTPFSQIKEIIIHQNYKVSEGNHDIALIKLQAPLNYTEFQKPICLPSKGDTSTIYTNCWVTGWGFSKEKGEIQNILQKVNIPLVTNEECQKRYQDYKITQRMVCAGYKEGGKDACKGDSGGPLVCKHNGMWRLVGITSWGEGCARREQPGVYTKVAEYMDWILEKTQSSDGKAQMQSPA
Sequence of Plasma Kallikrein (P03952 20-390 partner): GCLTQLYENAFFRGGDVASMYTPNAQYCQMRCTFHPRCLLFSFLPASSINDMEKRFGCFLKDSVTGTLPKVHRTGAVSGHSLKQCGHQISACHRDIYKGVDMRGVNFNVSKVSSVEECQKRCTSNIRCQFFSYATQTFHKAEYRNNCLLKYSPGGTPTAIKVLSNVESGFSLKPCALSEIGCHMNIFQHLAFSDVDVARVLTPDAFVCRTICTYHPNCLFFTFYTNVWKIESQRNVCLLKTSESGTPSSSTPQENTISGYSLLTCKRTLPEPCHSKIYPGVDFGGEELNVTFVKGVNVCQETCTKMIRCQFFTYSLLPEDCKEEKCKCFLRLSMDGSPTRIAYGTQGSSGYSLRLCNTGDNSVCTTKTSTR
Sequence of FXa (P00742 235-488): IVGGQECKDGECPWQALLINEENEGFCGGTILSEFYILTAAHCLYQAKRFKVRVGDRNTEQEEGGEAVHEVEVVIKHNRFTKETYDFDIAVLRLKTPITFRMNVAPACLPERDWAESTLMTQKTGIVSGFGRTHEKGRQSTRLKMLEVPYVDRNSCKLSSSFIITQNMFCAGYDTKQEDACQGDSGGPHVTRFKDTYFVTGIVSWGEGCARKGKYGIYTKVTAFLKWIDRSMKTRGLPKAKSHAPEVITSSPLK
Sequence of FXa (P00742 41-179 partner): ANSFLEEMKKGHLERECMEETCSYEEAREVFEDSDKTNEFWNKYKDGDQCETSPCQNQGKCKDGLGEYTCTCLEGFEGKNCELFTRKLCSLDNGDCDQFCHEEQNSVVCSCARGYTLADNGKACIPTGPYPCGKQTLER
Sequence of Plasmin (P00747 581-810): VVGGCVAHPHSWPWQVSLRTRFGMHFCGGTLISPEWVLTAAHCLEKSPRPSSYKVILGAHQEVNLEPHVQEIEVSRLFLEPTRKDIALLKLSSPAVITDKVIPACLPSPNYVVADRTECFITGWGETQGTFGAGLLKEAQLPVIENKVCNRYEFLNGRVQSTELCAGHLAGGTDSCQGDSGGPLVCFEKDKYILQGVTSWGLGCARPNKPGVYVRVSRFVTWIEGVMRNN
Sequence of Plasmin (P00747 97-580 partner): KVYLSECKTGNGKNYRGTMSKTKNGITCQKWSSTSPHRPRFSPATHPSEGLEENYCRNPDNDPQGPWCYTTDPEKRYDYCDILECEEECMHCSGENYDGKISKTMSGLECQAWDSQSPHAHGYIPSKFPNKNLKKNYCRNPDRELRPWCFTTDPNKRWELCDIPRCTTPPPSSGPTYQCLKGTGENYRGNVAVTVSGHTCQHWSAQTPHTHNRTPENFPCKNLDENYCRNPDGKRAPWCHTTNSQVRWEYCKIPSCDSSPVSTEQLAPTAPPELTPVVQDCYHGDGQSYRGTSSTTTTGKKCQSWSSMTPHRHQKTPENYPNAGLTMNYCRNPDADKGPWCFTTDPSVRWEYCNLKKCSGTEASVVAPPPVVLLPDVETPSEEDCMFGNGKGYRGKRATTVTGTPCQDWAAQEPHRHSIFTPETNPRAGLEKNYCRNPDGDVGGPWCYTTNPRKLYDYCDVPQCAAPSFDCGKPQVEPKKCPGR
Sequence of KLK1 (P06870 25-262): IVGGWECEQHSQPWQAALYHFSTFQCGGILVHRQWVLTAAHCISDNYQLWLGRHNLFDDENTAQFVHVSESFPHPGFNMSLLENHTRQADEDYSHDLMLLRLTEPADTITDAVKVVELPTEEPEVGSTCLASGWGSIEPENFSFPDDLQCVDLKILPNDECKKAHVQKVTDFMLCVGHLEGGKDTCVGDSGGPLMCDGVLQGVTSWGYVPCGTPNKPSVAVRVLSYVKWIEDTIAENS
Sequence of FXIa (P03951 388-625): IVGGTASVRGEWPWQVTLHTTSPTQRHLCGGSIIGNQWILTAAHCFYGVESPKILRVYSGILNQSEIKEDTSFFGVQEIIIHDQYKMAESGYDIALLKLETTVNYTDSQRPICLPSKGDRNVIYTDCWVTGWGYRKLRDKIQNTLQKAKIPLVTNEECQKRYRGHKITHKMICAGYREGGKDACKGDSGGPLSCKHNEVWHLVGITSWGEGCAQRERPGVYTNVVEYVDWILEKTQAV
Sequence of FXIa (P03951 19-387 partner): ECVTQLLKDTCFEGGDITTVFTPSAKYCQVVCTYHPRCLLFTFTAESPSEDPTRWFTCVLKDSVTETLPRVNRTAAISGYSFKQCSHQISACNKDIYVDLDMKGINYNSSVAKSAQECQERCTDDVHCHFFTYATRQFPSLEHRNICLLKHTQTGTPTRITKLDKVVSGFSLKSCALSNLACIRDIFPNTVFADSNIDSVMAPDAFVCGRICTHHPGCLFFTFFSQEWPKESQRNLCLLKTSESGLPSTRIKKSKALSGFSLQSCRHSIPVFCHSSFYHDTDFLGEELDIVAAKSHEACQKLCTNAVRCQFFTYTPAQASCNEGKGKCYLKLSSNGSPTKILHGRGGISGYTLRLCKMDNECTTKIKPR
Sequence of Human Factor XIIa (P00748 373-615): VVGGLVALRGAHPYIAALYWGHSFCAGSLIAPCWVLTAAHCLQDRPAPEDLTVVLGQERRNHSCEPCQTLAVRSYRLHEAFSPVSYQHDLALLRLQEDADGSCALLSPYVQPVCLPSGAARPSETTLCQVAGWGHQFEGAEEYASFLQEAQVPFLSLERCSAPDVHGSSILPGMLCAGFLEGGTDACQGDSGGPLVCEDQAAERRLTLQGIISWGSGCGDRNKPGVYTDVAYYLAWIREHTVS

SMILES | IC50 (Human Factor XIIa) [µM] | IC50 (Plasma Kallikrein) [µM] | IC50 (KLK1) [µM] | IC50 (FXa) [µM] | IC50 (Plasmin) [µM] | IC50 (Thrombin) [µM] | IC50 (Trypsin) [µM] | IC50 (FXIa) [µM] | half-life [1] [h] | bioavailability [1] [%] | bioavailability ([1]; 5 mg/kg) [%]
CN1CCC(Oc2ccc(CNc3cccc4c(N)nccc34)cc2)CC1 [Example 1002, 5-N-({4-[(1-methylpiperidin-4-yl)oxy]phenyl}methyl)isoquinoline-1,5-diamine] | 0.1 to 0.3 | – | – | 10 to 40 | > 40 | > 40 | > 40 | – | – | – | –
Nc1nccc2c(NCc3ccc(N4CCn5ccnc5C4)nc3)cccc12 [Example 1128, 5-N-[(6-{5H,6H,8H-imidazo[1,2-a]piperazin-7-yl}pyridin-3-yl)methyl]isoquinoline-1,5-diamine] | 0.3 to 1 | > 40 | 3 to 10 | > 40 | > 40 | 10 to 40 | > 40 | > 40 | – | – | –
CN1CCC(CNc2ccc(CNc3ccnc4[nH]ccc34)cn2)CC1 [Example 1197, N-((6-(((1-methylpiperidin-4-yl)methyl)amino)pyridin-3-yl)methyl)-1H-pyrrolo[2,3-b]pyridin-4-amine] | 1 to 3 | > 40 | > 40 | > 40 | > 40 | > 40 | > 40 | > 40 | – | – | –
Nc1nccc2c(NCc3ccc(N4CCn5c(nnc5C(F)F)C4)nc3)cccc12 [Example 1274, N5-((6-(3-(Difluoromethyl)-5,6-dihydro-[1,2,4]triazolo[4,3-a]pyrazin-7(8H)-yl)pyridin-3-yl)methyl)isoquinoline-1,5-diamine] | 0.3 to 1 | > 40 | 1 to 3 | > 40 | – | 10 to 40 | – | – | 2.52 | 32.1 | –
FC(F)c1nnc2n1CCN(c1ccc(CNc3ccnc4[nH]c(Cl)cc34)cn1)C2 [Example 1277, 2-chloro-N-((6-(3-(difluoromethyl)-5,6-dihydro-[1,2,4]triazolo[4,3-a]pyrazin-7(8H)-yl)pyridin-3-yl)methyl)-1H-pyrrolo[2,3-b]pyridin-4-amine] | 0.3 to 1 | > 40 | 10 to 40 | > 40 | – | 10 to 40 | – | – | 1.35 | 25 | –
CN1CCC(OCc2ccc(CNc3cccc4c(N)nccc34)cc2)CC1 [Example 2186, N5-(4-(((1-methylpiperidin-4-yl)oxy)methyl)benzyl)isoquinoline-1,5-diamine] | 0.1 to 0.3 | 10 to 40 | – | 10 to 40 | – | > 40 | – | > 40 | 4.39 | 15.8 | –
CN1CCC(OCc2ccc(CNc3ccc4c(N)nccc4c3)c(F)c2)CC1 [Example 2191, N6-(2-fluoro-4-(((1-methylpiperidin-4-yl)oxy)methyl)benzyl)isoquinoline-1,6-diamine] | 0.1 to 0.3 | 10 to 40 | – | 10 to 40 | – | > 40 | – | > 40 | 9.02 | 22.8 | –
CN1CCC(OCc2ccc(CNc3cccc4c(N)nccc34)c(F)c2)CC1 [Example 2197, N5-(2-fluoro-4-(((1-methylpiperidin-4-yl)oxy)methyl)benzyl)isoquinoline-1,5-diamine] | 0.01 to 0.1 | > 20 | – | > 20 | – | > 20 | – | > 20 | 6.87 | – | 26.6
CN1CCC(COc2cc(CNc3cccc4c(N)nccc34)ccn2)CC1 [Example 4260, N5-((2-((1-methylpiperidin-4-yl)methoxy)pyridin-4-yl)methyl)isoquinoline-1,5-diamine] | 0.1 to 0.3 | > 20 | – | > 20 | – | > 20 | – | > 20 | 9.98 | 13.6 | –
CN1CCC(COc2cc(CNc3ccc4cnccc4c3)ccn2)CC1 [Example 4262, N-({2-[(1-methylpiperidin-4-yl)methoxy]pyridin-4-yl}methyl)isoquinolin-6-amine] | 3 to 10 | 10 to 40 | 10 to 40 | 10 to 40 | > 40 | > 40 | > 40 | > 40 | – | – | –
Nc1ncc(F)c2c(NCc3ccnc(OCC4CCn5ccnc5C4)c3)cccc12 (centres unmarked) [Example 4308, 4-fluoro-5-N-[(2-{5H,6H,7H,8H-imidazo[1,2-a]pyridin-7-ylmethoxy}pyridin-4-yl)methyl]isoquinoline-1,5-diamine] | 3 to 10 | > 40 | 10 to 40 | > 40 | > 40 | > 40 | > 40 | > 40 | – | – | –
CN1CCC(COc2cc(CNc3cccc4[nH]nc(Cl)c34)ccn2)CC1 [Example 4454, 3-chloro-N-((2-((1-methylpiperidin-4-yl)methoxy)pyridin-4-yl)methyl)-1H-indazol-4-amine] | – | > 100 | 1 to 3 | > 40 | > 40 | > 40 | > 40 | > 40 | – | – | –

Now from value to compound:

IC50 (Human Factor XIIa) [µM] | IC50 (Plasma Kallikrein) [µM] | IC50 (KLK1) [µM] | IC50 (FXa) [µM] | IC50 (Plasmin) [µM] | IC50 (Thrombin) [µM] | IC50 (Trypsin) [µM] | IC50 (FXIa) [µM] | half-life [1] [h] | bioavailability [1] [%] | bioavailability ([1]; 5 mg/kg) [%] | SMILES
0.1 to 0.3 | 10 to 40 | 3 to 10 | 10 to 40 | > 40 | 10 to 40 | > 40 | > 40 | – | – | – | Nc1ncc(Cl)c2cc(NCc3ccnc(OCC4CCn5ccnc5C4)c3)ccc12 (single isomer, unassigned) [Example 4438, (S*)-4-chloro-N6-((2-((5,6,7,8-tetrahydroimidazo[1,2-a]pyridin-7-yl)methoxy)pyridin-4-yl)methyl)isoquinoline-1,6-diamine]
0.01 to 0.1 | 3 to 10 | 3 to 10 | 3 to 10 | > 40 | > 40 | 10 to 40 | 10 to 40 | – | – | – | Cc1cn2c(n1)CC(COc1cc(CNc3cccc4c(N)nccc34)ccn1)CC2 (single isomer, unassigned) [Example 4446, (S*)-N5-((2-((2-methyl-5,6,7,8-tetrahydroimidazo[1,2-a]pyridin-7-yl)methoxy)pyridin-4-yl)methyl)isoquinoline-1,5-diamine]
0.3 to 1 | 1 to 3 | – | 1 to 3 | > 40 | 1 to 3 | 10 to 40 | – | – | – | – | CN1CCC(Oc2ccc(CNc3ccc4c(N)nccc4c3)cn2)CC1 [Example 1001, 6-N-({6-[(1-methylpiperidin-4-yl)oxy]pyridin-3-yl}methyl)isoquinoline-1,6-diamine]
0.3 to 1 | 10 to 40 | 10 to 40 | 3 to 10 | > 40 | 1 to 3 | – | – | – | – | – | CN1CCC(Oc2cc(CNc3ccc4c(N)nccc4c3)ccn2)CC1 [Example 4259, N6-((2-((1-methylpiperidin-4-yl)oxy)pyridin-4-yl)methyl)isoquinoline-1,6-diamine]
1 to 3 | 10 to 40 | 10 to 40 | 0.3 to 1 | > 40 | 10 to 40 | > 40 | > 40 | – | – | – | CN1CCC(COc2cc(CNc3cc4ccnc(N)c4cn3)ccn2)CC1 [Example 4271, 6-N-({2-[(1-methylpiperidin-4-yl)methoxy]pyridin-4-yl}methyl)-2,7-naphthyridine-1,6-diamine]
